Data as given in patent publication US20250145594A1, “MODULATORS OF THE INTEGRATED STRESS PATHWAY” (Calico Life Sciences LLC, priority 2020, published 2025).

These compounds were tested on ATF4 luciferase reporter in HEK293T cells (assay: ATF4-Luc assay (in vitro model of VWMD)). Conditions: Homo sapiens, HEK-293T, 7 h, HEK293T cells carrying the ATF4 luciferase reporter, 1 μg/mL tunicamycin, One Glo luminescence.
Format: cell-based, human
Method in brief: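 Stable HEK293T line expressing firefly luciferase behind the human ATF4 5′-UTR, treated with 1 μg/mL tunicamycin plus compound for 7 hours. Luminescence read with One Glo; EC50 determined.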
For `O=C(NC12CC(n3cc(C[C@H]4C[C@H](OC(F)(F)F)C4)cn3)(C1)C2)[C@H]1C[C@@H](O)c2cc(Cl)c(F)cc2O1` [Compound 530, (2R,4R)-6-chloro-7-fluoro-4-hydroxy-N-[3-(4-{[(1r,3S)-3-(trifluoromethoxy)cyclobutyl]methyl}-1H-pyrazol-1-yl)bicyclo[1.1.1]pentan-1-yl]-3,4-dihydro-2H-1-benzopyran-2-carboxamide], the EC50 was 10 to 50 nM.
`O=C(NC12CC(n3cc(C[C@H]4C[C@@H](OC(F)(F)F)C4)cn3)(C1)C2)[C@H]1C[C@@H](O)c2cc(Cl)ccc2O1` [Compound 531, (2R,4R)-6-chloro-4-hydroxy-N-[3-(4-{[(1s,3R)-3-(trifluoromethoxy)cyclobutyl]methyl}-1H-pyrazol-1-yl)bicyclo[1.1.1]pentan-1-yl]-3,4-dihydro-2H-1-benzopyran-2-carboxamide] gave an EC50 of 10 to 50 nM.
In the case of `O=C(NC12CC(n3cc(C[C@H]4C[C@@H](OC(F)(F)F)C4)cn3)(C1)C2)[C@H]1C[C@@H](O)c2cc(Cl)c(F)cc2O1` [Compound 532, (2R,4R)-6-chloro-7-fluoro-4-hydroxy-N-[3-(4-{[(1s,3R)-3-(trifluoromethoxy)cyclobutyl]methyl}-1H-pyrazol-1-yl)bicyclo[1.1.1]pentan-1-yl]-3,4-dihydro-2H-1-benzopyran-2-carboxamide], the EC50 is reported as < 10 nM.
For `O=C(NC12CC(c3ccc(C(=O)N4CC(OCC(F)(F)F)C4)nc3)(C1)C2)[C@H]1C[C@@H](O)c2cc(Cl)ccc2O1` [Compound 533, (2R,4R)-6-chloro-4-hydroxy-N-(3-{6-[3-(2,2,2-trifluoroethoxy)azetidine-1-carbonyl]pyridin-3-yl}bicyclo[1.1.1]pentan-1-yl)-3,4-dihydro-2H-1-benzopyran-2-carboxamide], the EC50 was < 10 nM.
For `O=C(NC12CC(c3ccc(C(=O)N4CC[C@H](OC(F)(F)F)C4)cn3)(C1)C2)[C@H]1C[C@@H](O)c2cc(Cl)ccc2O1` [Compound 534, (2R,4R)-6-chloro-4-hydroxy-N-(3-{5-[(3S)-3-(trifluoromethoxy)pyrrolidine-1-carbonyl]pyridin-2-yl}bicyclo[1.1.1]pentan-1-yl)-3,4-dihydro-2H-1-benzopyran-2-carboxamide], the EC50 was 10 to 50 nM.
Compound `O=C(NC12CC(n3cc(C(=O)N4CCC(C(F)(F)F)C4)cn3)(C1)C2)[C@H]1C[C@@H](O)c2cc(Cl)ccc2O1` (stereo partly drawn) [Compound 535, (2R,4R)-6-chloro-4-hydroxy-N-(3-{4-[3-(trifluoromethyl)pyrrolidine-1-carbonyl]-1H-pyrazol-1-yl}bicyclo[1.1.1]pentan-1-yl)-3,4-dihydro-2H-1-benzopyran-2-carboxamide] has an EC50 of 10 to 50 nM.
`O=C(NC12CC(c3ccc(C(=O)N4CC(OC(F)(F)F)C4)nc3)(C1)C2)[C@H]1C[C@@H](O)c2cc(Cl)ccc2O1` [Compound 536, (2R,4R)-6-chloro-4-hydroxy-N-(3-{6-[3-(trifluoromethoxy)azetidine-1-carbonyl]pyridin-3-yl}bicyclo[1.1.1]pentan-1-yl)-3,4-dihydro-2H-1-benzopyran-2-carboxamide] was tested, and the EC50 was < 10 nM.
For `O=C(NC12CC(c3ccc(C(=O)N4CC(COC(F)(F)F)C4)nc3)(C1)C2)[C@H]1C[C@@H](O)c2cc(Cl)ccc2O1` [Compound 537, (2R,4R)-6-chloro-4-hydroxy-N-[3-(6-{3-[(trifluoromethoxy)methyl]azetidine-1-carbonyl}pyridin-3-yl)bicyclo[1.1.1]pentan-1-yl]-3,4-dihydro-2H-1-benzopyran-2-carboxamide], the EC50 was < 10 nM.
In the case of `O=C(NC12CC(n3cc(C4CC(COC(F)(F)F)C4)nn3)(C1)C2)[C@H]1C[C@@H](O)c2cc(Cl)ccc2O1` (stereo partly drawn) [Compound 541, (2R,4R)-6-chloro-4-hydroxy-N-[3-(4-{3-[(trifluoromethoxy)methyl]cyclobutyl}-1H-1,2,3-triazol-1-yl)bicyclo[1.1.1]pentan-1-yl]-3,4-dihydro-2H-1-benzopyran-2-carboxamide], the EC50 is reported as < 10 nM.
For `O=C(NC12CC(n3cc([C@H]4C[C@@H](OC(F)F)C4)nn3)(C1)C2)[C@H]1C[C@@H](O)c2cc(Cl)ccc2O1` [Compound 544, (2R,4R)-6-chloro-N-(3-{4-[(1s,3S)-3-(difluoromethoxy)cyclobutyl]-1H-1,2,3-triazol-1-yl}bicyclo[1.1.1]pentan-1-yl)-4-hydroxy-3,4-dihydro-2H-1-benzopyran-2-carboxamide], the EC50 was < 10 nM.
For `O=C(NC12CC(n3cc(-c4ccc(OC(F)(F)F)cn4)cn3)(C1)C2)[C@H]1C[C@H](O)c2cc(Cl)ccc2O1` [Compound 545, (2R,4S)-6-chloro-4-hydroxy-N-(3-{4-[5-(trifluoromethoxy)pyridin-2-yl]-1H-pyrazol-1-yl}bicyclo[1.1.1]pentan-1-yl)-3,4-dihydro-2H-1-benzopyran-2-carboxamide], the EC50 was < 10 nM.
With `O=C(NC12CC(n3cc(-c4ccc(C(F)(F)F)cn4)cn3)(C1)C2)[C@H]1C[C@H](O)c2cc(Cl)ccc2O1` [Compound 546, (2R,4S)-6-chloro-4-hydroxy-N-(3-{4-[5-(trifluoromethyl)pyridin-2-yl]-1H-pyrazol-1-yl}bicyclo[1.1.1]pentan-1-yl)-3,4-dihydro-2H-1-benzopyran-2-carboxamide] the EC50 was 10 to 50 nM.
With `O=C(NC12CC(n3cc(-c4ccn(CC(F)(F)F)c4)cn3)(C1)C2)[C@H]1C[C@@H](O)c2cc(Cl)ccc2O1` [Compound 547, (2R,4R)-6-chloro-4-hydroxy-N-(3-{4-[1-(2,2,2-trifluoroethyl)-1H-pyrrol-3-yl]-1H-pyrazol-1-yl}bicyclo[1.1.1]pentan-1-yl)-3,4-dihydro-2H-1-benzopyran-2-carboxamide] the EC50 was < 10 nM.
In the case of `O=C(NC12CC(n3cc(-c4ccc(C(F)(F)F)cn4)cn3)(C1)C2)[C@@H]1C[C@@H](O)c2cc(C(F)(F)F)ccc2O1` [Compound 548, (2S,4R)-4-hydroxy-6-(trifluoromethyl)-N-(3-{4-[5-(trifluoromethyl)pyridin-2-yl]-1H-pyrazol-1-yl}bicyclo[1.1.1]pentan-1-yl)-3,4-dihydro-2H-1-benzopyran-2-carboxamide], the EC50 is reported as < 10 nM.
For `O=C(NC12CC(n3cc(-c4ccc(C(F)(F)F)cn4)cn3)(C1)C2)[C@H]1C[C@H](O)c2cc(C(F)(F)F)ccc2O1` [Compound 549, (2R,4S)-4-hydroxy-6-(trifluoromethyl)-N-(3-{4-[5-(trifluoromethyl)pyridin-2-yl]-1H-pyrazol-1-yl}bicyclo[1.1.1]pentan-1-yl)-3,4-dihydro-2H-1-benzopyran-2-carboxamide], the EC50 was < 10 nM.
`O=C(NC12CC(n3cc(-c4ccc(OC(F)(F)F)cn4)cn3)(C1)C2)[C@@H]1C[C@@H](O)c2cc(C(F)(F)F)ccc2O1` [Compound 550, (2S,4R)-4-hydroxy-N-(3-{4-[5-(trifluoromethoxy)pyridin-2-yl]-1H-pyrazol-1-yl}bicyclo[1.1.1]pentan-1-yl)-6-(trifluoromethyl)-3,4-dihydro-2H-1-benzopyran-2-carboxamide] was tested, and the EC50 was < 10 nM.
For `O=C(NC12CC(n3cc(-c4ccc(OC(F)(F)F)cn4)cn3)(C1)C2)[C@H]1C[C@H](O)c2cc(C(F)(F)F)ccc2O1` [Compound 551, (2R,4S)-4-hydroxy-N-(3-{4-[5-(trifluoromethoxy)pyridin-2-yl]-1H-pyrazol-1-yl}bicyclo[1.1.1]pentan-1-yl)-6-(trifluoromethyl)-3,4-dihydro-2H-1-benzopyran-2-carboxamide], the EC50 was < 10 nM.
`O=C(NC12CC(n3cc(-c4ccc(C(F)(F)F)cn4)cn3)(C1)C2)[C@H]1C[C@@H](O)c2cc(F)c(F)cc2O1` [Compound 553, (2R,4R)-6,7-difluoro-4-hydroxy-N-(3-{4-[5-(trifluoromethyl)pyridin-2-yl]-1H-pyrazol-1-yl}bicyclo[1.1.1]pentan-1-yl)-3,4-dihydro-2H-1-benzopyran-2-carboxamide] was tested, and the EC50 was < 10 nM.
With `Cc1ccc(-c2cnn(C34CC(NC(=O)[C@H]5C[C@@H](O)c6cc(Cl)ccc6O5)(C3)C4)c2)nc1` [Compound 554, (2R,4R)-6-chloro-4-hydroxy-N-{3-[4-(5-methylpyridin-2-yl)-1H-pyrazol-1-yl]bicyclo[1.1.1]pentan-1-yl}-3,4-dihydro-2H-1-benzopyran-2-carboxamide] the EC50 was < 10 nM.
In the case of `Cc1ccc(-c2cnn(C34CC(NC(=O)[C@H]5C[C@@H](O)c6cc(C(F)(F)F)ccc6O5)(C3)C4)c2)nc1` [Compound 555, (2R,4R)-4-hydroxy-N-{3-[4-(5-methylpyridin-2-yl)-1H-pyrazol-1-yl]bicyclo[1.1.1]pentan-1-yl}-6-(trifluoromethyl)-3,4-dihydro-2H-1-benzopyran-2-carboxamide], the EC50 is reported as < 10 nM.
With `O=C(NC12CC(n3cc(-c4ccn(C(F)(F)F)n4)cn3)(C1)C2)[C@H]1C[C@@H](O)c2cc(Cl)ccc2O1` [Compound 556, (2R,4R)-6-chloro-4-hydroxy-N-{3-[1-(trifluoromethyl)-1H,1′H-[3,4′-bipyrazol]-1′-yl]bicyclo[1.1.1]pentan-1-yl}-3,4-dihydro-2H-1-benzopyran-2-carboxamide] the EC50 was < 10 nM.
Compound `O=C(NC12CC(c3ccnc(-n4cc(C(F)(F)F)cn4)c3)(C1)C2)[C@H]1C[C@@H](O)c2cc(C(F)(F)F)ccc2O1` [Compound 558, (2R,4R)-4-hydroxy-6-(rifluoromethyl)-N-(3-{2-[4-(trifluoromethyl)-1H-pyrazol-1-yl]pyridin-4-yl}bicyclo[1.1.1]pentan-1-yl)-3,4-dihydro-2H-1-benzopyran-2-carboxamide] has an EC50 of 10 to 50 nM.
`O=C(NC12CC(c3ccc(-n4cnc(C(F)(F)F)c4)nc3)(C1)C2)[C@H]1C[C@@H](O)c2cc(Cl)ccc2O1` [Compound 559, (2R,4R)-6-chloro-4-hydroxy-N-(3-{6-[4-(trifluoromethyl)-1H-imidazol-1-yl]pyridin-3-yl}bicyclo[1.1.1]pentan-1-yl)-3,4-dihydro-2H-1-benzopyran-2-carboxamide] was tested, and the EC50 was 10 to 50 nM.
In the case of `O=C(NC12CC(c3ccnc(-n4cc(C(F)(F)F)cn4)c3)(C1)C2)[C@H]1C[C@@H](O)c2cc(Cl)ccc2O1` [Compound 560, (2R,4R)-6-chloro-4-hydroxy-N-(3-{2-[4-(trifluoromethyl)-1H-pyrazol-1-yl]pyridin-4-yl}bicyclo[1.1.1]pentan-1-yl)-3,4-dihydro-2H-1-benzopyran-2-carboxamide], the EC50 is reported as 10 to 50 nM.
